Laboratory results taken from patent US10538547B2, “Mangiferin-6-O-calcium salt and preparation process thereof” (CHANGZHOU DEZE MEDICAL SCIENCE CO., LTD, priority 2016, dated 2020).
Counter-ions that a name gives are not always drawn.

Experiments:
[1] = Acceleration test (accelerated stability); type: physicochemical; details: for Content / Morphology: 40°C±2°C, 75% RH±5% RH, sealed aluminum plastic bag
Procedure: (§1) Test method: A sample of the mangiferin-6-O-calcium salt raw material was sealingly packaged with an aluminum plastic composition bag, placed at 40° C.±2° C. and 75% RH±5% RH conditions, pieces of the sample were taken at the time of 0, 3 and 6 months and the morphology and content thereof were tested.

[2] = Physicochemical properties: solubility of the mangiferin-6-O-calcium salt
Text: The mangiferin-6-O-calcium salt has the following structural formula: […]

[3] = Room temperature long-term stability test; type: physicochemical; details: for Content / Morphology: 25°C±2°C, 60% RH±5% RH, sealed aluminum plastic bag
Procedure: as §1, with “at 25°” for “at 40°”, “and 60%” for “and 75%”, “0, 3, 6, 9” for “0, 3”, “and 12” for “and 6”

Q: Which results are given for `O=c1c2cc(O)c(O)cc2oc2cc(O)c(C3OC(CO)C(O)C(O)C3O)c(O)c12` (stereo not drawn) [mangiferin-6-O-calcium salt]?
A: Content ([1]; batch 140618, 0 month): 84.5%; Morphology ([1]; batch 140618, 0 month): Light yellow-; Content ([1]; batch 140618, 3 months): 84.5%; Morphology ([1]; batch 140618, 3 months): Light yellow-; Content ([1]; batch 140618, 6 months): 84.2%; Morphology ([1]; batch 140618, 6 months): Light yellow-; Stability conclusion, acceleration test ([1]; acceleration test condition for 6 months): stable properties; Solubility in diluted hydrochloric acid solution ([2]; diluted hydrochloric acid solution): slightly soluble; Solubility in hot water ([2]; hot water): soluble; Solubility in water ([2]; water): slightly soluble; Content ([3]; batch 140618, 0 month): 84.5%; Morphology ([3]; batch 140618, 0 month): Light yellow-green; Content ([3]; batch 140618, 3 months): 84.5%; Morphology ([3]; batch 140618, 3 months): Light yellow-green; Content ([3]; batch 140618, 6 months): 84.3%; Morphology ([3]; batch 140618, 6 months): Light yellow-; Content ([3]; batch 140618, 9 months): 84.6%; Morphology ([3]; batch 140618, 9 months): Light yellow-; Content ([3]; batch 140618, 12 months): 84.2%; Morphology ([3]; batch 140618, 12 months): Light yellow-; Stability conclusion, room temperature ([3]; room temperature condition for 12 months): stable properties
